Measurements taken from patent US20090299044A1 (priority 2006, published 2009).
Bridge positions count the residues as written; N and C are the ends. Peptide text beside a SMILES is read from it.

Experiments:
[1] = target: T1, human Kv1.3 (CHO) (Homo sapiens, UniProt P22001); test: cell-based
T1 construct: expressed in transfected cells; host or cells: CHO

[2] = target: T2, human Kv1.1 (HEK293) (Homo sapiens, UniProt Q09470); test: cell-based
T2 construct: expressed in transfected cells; host or cells: HEK293
T2 sequence (Q09470 whole entry): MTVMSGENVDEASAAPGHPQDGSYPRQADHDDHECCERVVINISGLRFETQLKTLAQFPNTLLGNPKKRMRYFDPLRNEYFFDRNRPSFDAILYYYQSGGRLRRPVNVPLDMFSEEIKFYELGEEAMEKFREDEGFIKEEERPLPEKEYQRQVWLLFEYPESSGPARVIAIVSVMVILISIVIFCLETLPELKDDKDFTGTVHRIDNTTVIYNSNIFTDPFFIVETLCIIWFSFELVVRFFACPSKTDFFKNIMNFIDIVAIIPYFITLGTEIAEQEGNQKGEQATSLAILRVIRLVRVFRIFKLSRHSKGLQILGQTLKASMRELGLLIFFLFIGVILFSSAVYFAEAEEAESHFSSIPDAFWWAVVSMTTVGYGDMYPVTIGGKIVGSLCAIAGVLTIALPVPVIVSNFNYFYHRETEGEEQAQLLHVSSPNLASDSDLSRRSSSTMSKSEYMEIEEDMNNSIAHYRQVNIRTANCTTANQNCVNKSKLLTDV

T1 sequence (P22001 whole entry): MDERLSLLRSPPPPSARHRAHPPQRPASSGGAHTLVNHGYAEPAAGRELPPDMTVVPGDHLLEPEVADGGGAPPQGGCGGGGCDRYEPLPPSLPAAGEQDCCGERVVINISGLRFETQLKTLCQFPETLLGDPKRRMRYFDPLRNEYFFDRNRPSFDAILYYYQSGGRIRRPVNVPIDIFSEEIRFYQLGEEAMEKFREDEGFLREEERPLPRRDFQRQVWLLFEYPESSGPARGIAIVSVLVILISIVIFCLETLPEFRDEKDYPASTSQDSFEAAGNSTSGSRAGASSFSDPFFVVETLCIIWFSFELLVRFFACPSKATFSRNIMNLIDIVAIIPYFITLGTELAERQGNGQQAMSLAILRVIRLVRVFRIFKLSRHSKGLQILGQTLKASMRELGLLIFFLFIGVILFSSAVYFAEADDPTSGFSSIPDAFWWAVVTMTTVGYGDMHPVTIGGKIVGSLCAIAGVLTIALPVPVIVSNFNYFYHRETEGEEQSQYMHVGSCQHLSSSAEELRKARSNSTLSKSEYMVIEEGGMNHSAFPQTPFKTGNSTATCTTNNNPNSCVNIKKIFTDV

With `CC[C@H](C)[C@@H]1NC(=O)[C@H](CCCCN)NC(=O)[C@@H](NC(=O)[C@H](CCCCN)NC(=O)[C@@H](NC(=O)[C@H](CC(N)=O)NC(=O)[C@@H](NC(=O)[C@@H](NC(=O)[C@@H](NC(=O)CN)C(C)C)[C@@H](C)CC)[C@@H](C)CC)C(C)C)CSSC[C@@H]2NC(=O)[C@H](CCCCN)NC(=O)CNC(=O)[C@H](Cc3ccccc3)NC(=O)[C@H](CCCNC(=N)N)NC(=O)[C@H](CCSC)NC(=O)CNC(=O)[C@H](C)NC(=O)[C@H](CCCCN)NC(=O)[C@H](CCCCN)NC(=O)[C@@H]3CSSC[C@@H](C(=O)N[C@H](C(=O)N4CCC[C@H]4C(=O)N[C@@H](CCCCN)C(=O)O)[C@@H](C)O)NC(=O)[C@H](Cc4c[nH]cn4)NC(=O)[C@H](CSSC[C@H](NC(=O)[C@H](CCC(N)=O)NC(=O)[C@H](CCCNC(=N)N)NC(=O)[C@H](CO)NC1=O)C(=O)N[C@@H](CCCNC(=N)N)C(=O)N[C@@H](CCC(=O)O)C(=O)N1CCC[C@H]1C(=O)N3)NC(=O)[C@H](CCCCN)NC(=O)CNC(=O)[C@H](CC(N)=O)NC(=O)[C@H](CCSC)NC2=O` [L15R] (H-GVIINVKCKISRQCREPCKKAGMRFGKCMNGKCHCTPK-OH; disulfide 8-28, 14-33, 18-35) as the compound, how does the IC50 [1] read?
Its IC50 is 0.0137 nM.

And the IC50 [2]?
Its IC50 is 0.00216 nM.

Which IC50 [1] does the source give for `CC[C@H](C)[C@@H]1NC(=O)[C@H](CCCCN)NC(=O)[C@@H](NC(=O)[C@H](CCCCN)NC(=O)[C@@H](NC(=O)[C@H](CC(N)=O)NC(=O)[C@@H](NC(=O)[C@@H](NC(=O)[C@@H](NC(=O)CN)C(C)C)[C@@H](C)CC)[C@@H](C)CC)C(C)C)CSSC[C@@H]2NC(=O)[C@H](CCCCN)NC(=O)CNC(=O)[C@H](Cc3ccccc3)NC(=O)[C@H](CCCNC(=N)N)NC(=O)[C@H](C)NC(=O)CNC(=O)[C@H](C)NC(=O)[C@H](CCCCN)NC(=O)[C@H](CCCCN)NC(=O)[C@@H]3CSSC[C@@H](C(=O)N[C@H](C(=O)N4CCC[C@H]4C(=O)N[C@@H](CCCCN)C(=O)O)[C@@H](C)O)NC(=O)[C@H](Cc4c[nH]cn4)NC(=O)[C@H](CSSC[C@H](NC(=O)[C@H](CCC(N)=O)NC(=O)[C@H](CCCNC(=N)N)NC(=O)[C@H](CO)NC1=O)C(=O)N[C@@H](CC(C)C)C(=O)N[C@@H](CCC(=O)O)C(=O)N1CCC[C@H]1C(=O)N3)NC(=O)[C@H](CCCCN)NC(=O)CNC(=O)[C@H](CC(N)=O)NC(=O)[C@H](CCSC)NC2=O` [M23A] (H-GVIINVKCKISRQCLEPCKKAGARFGKCMNGKCHCTPK-OH; disulfide 8-28, 14-33, 18-35) here?
The IC50 was 0.0714 nM.

What about the IC50 [2] of the same compound?
Its IC50 is 0.0386 nM.

With `CC[C@H](C)[C@@H]1NC(=O)[C@H](CCCCN)NC(=O)[C@@H](NC(=O)[C@H](CCCCN)NC(=O)[C@@H](NC(=O)[C@H](CC(N)=O)NC(=O)[C@@H](NC(=O)[C@@H](NC(=O)[C@@H](NC(=O)CN)C(C)C)[C@@H](C)CC)[C@@H](C)CC)C(C)C)CSSC[C@@H]2NC(=O)[C@H](CCCCN)NC(=O)CNC(=O)[C@H](Cc3ccccc3)NC(=O)[C@H](CCCNC(=N)N)NC(=O)[C@H](CCC(=O)O)NC(=O)CNC(=O)[C@H](C)NC(=O)[C@H](CCCCN)NC(=O)[C@H](CCCCN)NC(=O)[C@@H]3CSSC[C@@H](C(=O)N[C@H](C(=O)N4CCC[C@H]4C(=O)N[C@@H](CCCCN)C(=O)O)[C@@H](C)O)NC(=O)[C@H](Cc4c[nH]cn4)NC(=O)[C@H](CSSC[C@H](NC(=O)[C@H](CCC(N)=O)NC(=O)[C@H](CCCNC(=N)N)NC(=O)[C@H](CO)NC1=O)C(=O)N[C@@H](CC(C)C)C(=O)N[C@@H](CCC(=O)O)C(=O)N1CCC[C@H]1C(=O)N3)NC(=O)[C@H](CCCCN)NC(=O)CNC(=O)[C@H](CC(N)=O)NC(=O)[C@H](CCSC)NC2=O` [M23E] (H-GVIINVKCKISRQCLEPCKKAGERFGKCMNGKCHCTPK-OH; disulfide 8-28, 14-33, 18-35) as the compound, how does the IC50 [1] read?
Its IC50 is 0.0243 nM.

What about the IC50 [2] of the same compound?
The IC50 was 0.0104 nM.
